Assay results taken from patent US20090209460A1, “COMPOSITIONS AND METHODS FOR TREATING OBESITY AND RELATED METABOLIC DISORDERS” (Amylin Pharmaceuticals, Inc., priority 2005, published 2009).
Read-outs that look alike come from different tables or passages of the source. Residues, ends and D or L forms follow the SMILES beside them.

Key:
NIH/Swiss mice = assay: acute food intake assay, lean overnight-fasted NIH/Swiss mice, intraperitoneal injection; format: in vivo, mouse; conditions: for Food Intake Inhibition: mouse assay, dose of 200 mg/kg, measured at 60 minutes; for FI (60′, 200): food intake, % change relative to control, 60 min
Description: The effect of NMX Peptides, FNX Peptides or NMX Receptor agonists on food intake when systemically administered was investigated using an acute food intake assay. This assay measured food consumption in lean subjects. Lean, group-housed, overnight-fasted NIH/Swiss mice. All in vivo tests were performed with peripheral injections of peptide. […] The dose-response data are presented herein. The protocol is described below. Female NIH/Swiss mice (8-24 weeks old) were group housed with a 12:12 hour light:dark cycle, with lights on at 0300. Water and a standard pelleted mouse chow diet are available ad libitum, except as noted. Animals are fasted starting at approximately 1530 hrs, 1 day prior to experiment. At time=0 min, all animals are given an intraperitoneal injection of vehicle or polypeptide in a volume of 200 uL/mouse and immediately given a pre-weighed amount (10-15 g) of the standard chow. Food is removed and weighed at 30, 60, and 120 minutes to determine the amount of food consumed. The effects of treatment on food intake are expressed as % change relative to control.

[1] = brush border membrane (BBM) stability assay; format: in vitro ADME, human; conditions: brush border membrane extract (e.g. kidney)
Description: Some exemplary NMX Peptides and FNX Peptides were tested for stability in a brush border membrane (BBM) assay as described herein. To determine the enzymatic stability of peptide hormones peptides are incubated with a preparation of human brush border membranes extract (e.g., kidney), and the stability of the peptide is determined by measuring concentration of the intact peptide at specific intervals. The brush border membrane extract contains dipeptidyl peptidase IV (DPP-IV), neutral endopeptidases, peptidyl-dipeptidase A, carboxypeptidases and aminopeptidases. These are the primary enzymes that degrade peptides in vivo and are found in the kidneys, liver, lungs and pancreas. Resistance against these human proteases would increase peptide half-life. In the BBM assay test peptide was subjected to digestion over a period of five (5) hours with human brush border membrane extracts, e.g. kidney, at 37° C. At desired timepoints digestion was stopped by addition of quench solution, typically 50% ACN, 1% FA. After centrifugation to remove membrane debris, supernatant was subjected to mass spectrometry using a selected ion scan for the intact molecule of interest. Values are expressed as a percent of stable. A value of at least 80 or greater is regarded as an extremely stable molecule. A value of at least 70 or greater is a molecule with significant stability.

[2] = percent compound remaining after a 5 hour incubation, human brush border membrane assay, read-out: hBBM

Row | SMILES | remaining at 5 h [1, 2] [%] | Food Intake Inhibition (NIH/Swiss mice) [%] | further results
1 | CC(C)C[C@H](NC(=O)[C@H](CCCCN)NC(=O)[C@H](CCC(N)=O)NC(=O)[C@@H](NC(=O)[C@H](CCCCN)NC(=O)[C@H](CO)NC(=O)[C@H](Cc1ccc(O)cc1)NC(=O)[C@H](Cc1c[nH]cn1)NC(=O)[C@H](Cc1ccccc1)NC(=O)[C@H](CC(C)C)NC(=O)[C@@H](N)Cc1ccccc1)[C@@H](C)O)C(=O)NCC(=O)N[C@@H](CCCCN)C(=O)N[C@@H](CO)C(=O)N[C@@H](CC(N)=O)C(=O)N[C@H](C(=O)N[C@H](C(=O)N[C@@H](CCC(=O)O)C(=O)N[C@@H](CCC(=O)O)C(=O)N[C@@H](CC(C)C)C(=O)N[C@@H](CCC(N)=O)C(=O)N[C@@H](CO)C(=O)N1CCC[C@H]1C(=O)N[C@@H](Cc1ccccc1)C(=O)N[C@@H](C)C(=O)N[C@@H](CO)C(=O)N[C@@H](CCC(N)=O)C(=O)N[C@@H](CO)C(=O)N[C@@H](CCCNC(=N)N)C(=O)NCC(=O)N[C@@H](Cc1ccccc1)C(=O)N[C@@H](Cc1ccccc1)C(=O)N[C@@H](CC(C)C)C(=O)N[C@@H](Cc1ccccc1)C(=O)N[C@@H](CCCNC(=N)N)C(=O)N1CCC[C@H]1C(=O)N[C@@H](CCCNC(=N)N)C(=O)N[C@@H](CC(N)=O)C(N)=O)C(C)C)C(C)C [(Phe31]FN38] (H-FLFHYSKTQKLGKSNVVEELQSPFASQSRGFFLFRPRN-NH2; N-terminus assumed) | 81 | −64 | –
2 | CC(C)C[C@H](NC(=O)[C@H](Cc1ccccc1)NC(=O)[C@H](Cc1ccc(O)cc1)NC(=O)CN)C(=O)N[C@@H](Cc1ccccc1)C(=O)N[C@@H](CCCNC(=N)N)C(=O)N1CCC[C@H]1C(=O)N[C@@H](CCCNC(=N)N)C(=O)N[C@@H](CC(N)=O)C(N)=O [Compound 163357, reference compound] (H-GYFLFRPRN-NH2; N-terminus assumed) | – | – | activity in food intake assays (NIH/Swiss mice; doses up to 170 nmol/kg): inactive; FI (60′, 200) (NIH/Swiss mice): 26%
3 | CC[C@H](C)[C@H](NC(=O)[C@@H](NC(=O)CNC(=O)CNC(=O)[C@@H]1CCCN1C(=O)[C@@H](NC(=O)[C@H](CCC(N)=O)NC(=O)[C@@H](NC(=O)[C@H](CCC(=O)O)NC(=O)[C@H](CCC(=O)O)NC(=O)[C@H](CC(=O)O)NC(=O)[C@H](CO)NC(=O)[C@H](CC(N)=O)NC(=O)[C@H](CO)NC(=O)[C@H](CCCCN)NC(=O)CNC(=O)[C@H](CC(C)C)NC(=O)[C@H](CCCCN)NC(=O)[C@H](CCC(N)=O)NC(=O)[C@@H](NC(=O)[C@H](CCCCN)NC(=O)[C@H](CO)NC(=O)[C@H](Cc1ccc(O)cc1)NC(=O)[C@H](Cc1c[nH]cn1)NC(=O)[C@H](Cc1ccccc1)NC(=O)[C@H](CC(C)C)NC(=O)[C@@H](N)Cc1ccccc1)[C@@H](C)O)C(C)C)C(C)C)C(C)C)C(=O)N[C@@H](CO)C(=O)N[C@@H](CC(N)=O)C(=O)NCC(N)=O [Compound 165061] (H-FLFHYSKTQKLGKSNSDEEVQVPGGVISNG-NH2; N-terminus assumed) | – | – | FI (60′, 200) (NIH/Swiss mice): 0%; remaining at 5 h ([1]; percent of stable, human brush border membrane extracts, five hours, 37° C., read-out: BBM): 57%
4 | CC(C)C[C@H](NC(=O)[C@H](Cc1ccccc1)NC(=O)[C@H](Cc1ccc(O)cc1)NC(=O)CNC(=O)[C@H](CO)NC(=O)[C@H](Cc1ccc(O)cc1)NC(=O)[C@H](Cc1c[nH]cn1)NC(=O)[C@H](Cc1ccccc1)NC(=O)[C@H](CC(C)C)NC(=O)[C@@H](N)Cc1ccccc1)C(=O)N[C@@H](Cc1ccccc1)C(=O)N[C@@H](CCCNC(=N)N)C(=O)N1CCC[C@H]1C(=O)N[C@@H](CCCNC(=N)N)C(=O)N[C@@H](CC(N)=O)C(N)=O [Des-(Lys7-Gly30)FN38 or FN15] (H-FLFHYSGYFLFRPRN-NH2; N-terminus and C-terminus assumed) | 49 | – | –

The next lines start with results.

Row | remaining at 5 h [1, 2] [%] | SMILES | Food Intake Inhibition (NIH/Swiss mice) [%] | further results
5 | 77 | CC(C)C[C@H](NC(=O)[C@H](CCCCN)NC(=O)[C@H](CCC(N)=O)NC(=O)[C@@H](NC(=O)[C@H](CCCCN)NC(=O)[C@H](CO)NC(=O)[C@H](Cc1ccc(O)cc1)NC(=O)[C@H](Cc1c[nH]cn1)NC(=O)[C@H](Cc1ccccc1)NC(=O)[C@H](CC(C)C)NC(=O)[C@@H](N)Cc1ccccc1)[C@@H](C)O)C(=O)NCC(=O)N[C@@H](CCCCN)C(=O)N[C@@H](CO)C(=O)N[C@@H](CC(N)=O)C(=O)N[C@@H](CCC(=O)O)C(=O)N[C@@H](CCC(=O)O)C(=O)N[C@@H](CC(C)C)C(=O)N[C@@H](CCC(N)=O)C(=O)N[C@@H](CO)C(=O)N1CCC[C@H]1C(=O)N[C@@H](CO)C(=O)N[C@@H](CCCNC(=N)N)C(=O)NCC(=O)N[C@@H](Cc1ccc(O)cc1)C(=O)N[C@@H](Cc1ccccc1)C(=O)N[C@@H](CC(C)C)C(=O)N[C@@H](Cc1ccccc1)C(=O)N[C@@H](CCCNC(=N)N)C(=O)N1CCC[C@H]1C(=O)N[C@@H](CCCNC(=N)N)C(=O)N[C@@H](CC(N)=O)C(N)=O (H-FLFHYSKTQKLGKSNEELQSPSRGYFLFRPRN-NH2; N-terminus assumed) | −79 | –
6 | 67 | CC(C)C[C@H](NC(=O)[C@H](CCCCN)NC(=O)[C@H](CCC(N)=O)NC(=O)[C@@H](NC(=O)[C@H](CCCCN)NC(=O)[C@H](CO)NC(=O)[C@@H](N)Cc1ccc(O)cc1)[C@@H](C)O)C(=O)NCC(=O)N[C@@H](CCCCN)C(=O)N[C@@H](CO)C(=O)N[C@@H](CC(N)=O)C(=O)N[C@@H](CCC(=O)O)C(=O)N[C@@H](CCC(=O)O)C(=O)N[C@@H](CC(C)C)C(=O)N[C@@H](CCC(N)=O)C(=O)N[C@@H](CO)C(=O)N1CCC[C@H]1C(=O)N[C@@H](CO)C(=O)N[C@@H](CCCNC(=N)N)C(=O)NCC(=O)N[C@@H](Cc1ccc(O)cc1)C(=O)N[C@@H](Cc1ccccc1)C(=O)N[C@@H](CC(C)C)C(=O)N[C@@H](Cc1ccccc1)C(=O)N[C@@H](CCCNC(=N)N)C(=O)N1CCC[C@H]1C(=O)N[C@@H](CCCNC(=N)N)C(=O)N[C@@H](CC(N)=O)C(N)=O (H-YSKTQKLGKSNEELQSPSRGYFLFRPRN-NH2; N-terminus assumed) | −69 | –
7 | 82 | CC(C)C[C@H](NC(=O)[C@H](CCCCN)NC(=O)[C@H](CCC(N)=O)NC(=O)[C@@H](NC(=O)[C@H](CCCCN)NC(=O)[C@H](CO)NC(=O)[C@H](Cc1ccc(O)cc1)NC(=O)[C@H](Cc1c[nH]cn1)NC(=O)[C@H](Cc1ccccc1)NC(=O)[C@H](CC(C)C)NC(=O)[C@@H](N)Cc1ccccc1)[C@@H](C)O)C(=O)NCC(=O)N[C@@H](CCCCN)C(=O)N[C@@H](CO)C(=O)N[C@@H](CC(N)=O)C(=O)N[C@H](C(=O)N[C@H](C(=O)N[C@@H](CCC(=O)O)C(=O)N[C@@H](CCC(=O)O)C(=O)N[C@@H](CC(C)C)C(=O)N[C@@H](CCC(N)=O)C(=O)N[C@@H](CO)C(=O)N1CCC[C@H]1C(=O)N[C@@H](Cc1ccccc1)C(=O)N[C@@H](C)C(=O)N[C@@H](CO)C(=O)N[C@@H](CCC(N)=O)C(=O)N[C@@H](CO)C(=O)N[C@@H](CCCNC(=N)N)C(=O)NCC(=O)N[C@@H](Cc1ccc(O)cc1)C(=O)N[C@@H](Cc1ccccc1)C(=O)N[C@H](C(=O)N[C@@H](Cc1ccccc1)C(=O)N[C@@H](CCCNC(=N)N)C(=O)N1CCC[C@H]1C(=O)N[C@@H](CCCNC(=N)N)C(=O)N[C@@H](CC(N)=O)C(N)=O)C(C)C)C(C)C)C(C)C [[Val33]FN38] (H-FLFHYSKTQKLGKSNVVEELQSPFASQSRGYFVFRPRN-NH2; N-terminus and C-terminus assumed) | – | –
